test system: barnyardgrass (Echinochloa crus-galli); test: Test A preemergence, barnyardgrass; format: in vivo; conditions: 125 g ai/ha, 0 to 100 scale
Procedure, shortened: (§1)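 Pre: seeds planted in loam/sand, directed soil spray. Post: 2–10 cm plants, 1–2 leaf. Formulation: non-phytotoxic solvent + surfactant. Greenhouse ~10 d; visual injury vs untreated, 0 = no effect, 100 = complete control.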

SMILES	Plant response rating, Barnyardgrass
O=C1NCC(C#Cc2cccc(Cl)c2)C1C(=O)Nc1ccccc1F (stereo not drawn) [Compound 29]	30

same assay, conditions: 500 g ai/ha, 0 to 100 scale

SMILES	Plant response rating, Barnyardgrass
O=C1NCC(C#Cc2cccc(Cl)c2)C1C(=O)Nc1ccccc1F (stereo not drawn) [Compound 29]	70

test system: kochia (Kochia scoparia); test: Test A preemergence, kochia; format: in vivo; conditions: 125 g ai/ha, 0 to 100 scale
Procedure, shortened: as §1

SMILES	Plant response rating, Kochia
O=C1NCC(C#Cc2cccc(Cl)c2)C1C(=O)Nc1ccccc1F (stereo not drawn) [Compound 29]	0

same assay, conditions: 500 g ai/ha, 0 to 100 scale

SMILES	Plant response rating, Kochia
O=C1NCC(C#Cc2cccc(Cl)c2)C1C(=O)Nc1ccccc1F (stereo not drawn) [Compound 29]	0

test system: ragweed (common ragweed, Ambrosia elatior); test: Test A preemergence, ragweed; format: in vivo; conditions: 125 g ai/ha, 0 to 100 scale
Procedure, shortened: as §1

SMILES	Plant response rating, Ragweed
O=C1NCC(C#Cc2cccc(Cl)c2)C1C(=O)Nc1ccccc1F (stereo not drawn) [Compound 29]	0

same assay, conditions: 500 g ai/ha, 0 to 100 scale

SMILES	Plant response rating, Ragweed
O=C1NCC(C#Cc2cccc(Cl)c2)C1C(=O)Nc1ccccc1F (stereo not drawn) [Compound 29]	0

test system: ryegrass, It. (Italian ryegrass, Lolium multiflorum); test: Test A preemergence, ryegrass, It.; format: in vivo; conditions: 125 g ai/ha, 0 to 100 scale
Procedure, shortened: as §1

SMILES	Plant response rating, Ryegrass, It.
O=C1NCC(C#Cc2cccc(Cl)c2)C1C(=O)Nc1ccccc1F (stereo not drawn) [Compound 29]	0

same assay, conditions: 500 g ai/ha, 0 to 100 scale

SMILES	Plant response rating, Ryegrass, It.
O=C1NCC(C#Cc2cccc(Cl)c2)C1C(=O)Nc1ccccc1F (stereo not drawn) [Compound 29]	0

test system: foxtail, giant (giant foxtail, Setaria faberii); test: Test A preemergence, foxtail, giant; format: in vivo; conditions: 125 g ai/ha, 0 to 100 scale
Procedure, shortened: as §1

SMILES	Plant response rating, Foxtail, Giant
O=C1NCC(C#Cc2cccc(Cl)c2)C1C(=O)Nc1ccccc1F (stereo not drawn) [Compound 29]	0

same assay, conditions: 500 g ai/ha, 0 to 100 scale

SMILES	Plant response rating, Foxtail, Giant
O=C1NCC(C#Cc2cccc(Cl)c2)C1C(=O)Nc1ccccc1F (stereo not drawn) [Compound 29]	60

test system: pigweed (Amaranthus retroflexus); test: Test A preemergence, pigweed; format: in vivo; conditions: 125 g ai/ha, 0 to 100 scale
Procedure, shortened: as §1

SMILES	Plant response rating, Pigweed
O=C1NCC(C#Cc2cccc(Cl)c2)C1C(=O)Nc1ccccc1F (stereo not drawn) [Compound 29]	0

same assay, conditions: 500 g ai/ha, 0 to 100 scale

SMILES	Plant response rating, Pigweed
O=C1NCC(C#Cc2cccc(Cl)c2)C1C(=O)Nc1ccccc1F (stereo not drawn) [Compound 29]	0

test system: barnyardgrass (Echinochloa crus-galli); test: Test A postemergence, barnyardgrass; format: in vivo; conditions: 125 g ai/ha, 0 to 100 scale
Procedure, shortened: as §1

SMILES	Plant response rating, Barnyardgrass
O=C1NCC(C#Cc2cccc(Cl)c2)C1C(=O)Nc1ccccc1F (stereo not drawn) [Compound 29]	0

same assay, conditions: 500 g ai/ha, 0 to 100 scale

SMILES	Plant response rating, Barnyardgrass
O=C1NCC(C#Cc2cccc(Cl)c2)C1C(=O)Nc1ccccc1F (stereo not drawn) [Compound 29]	60

test system: kochia (Kochia scoparia); test: Test A postemergence, kochia; format: in vivo; conditions: 125 g ai/ha, 0 to 100 scale
Procedure, shortened: as §1

SMILES	Plant response rating, Kochia
O=C1NCC(C#Cc2cccc(Cl)c2)C1C(=O)Nc1ccccc1F (stereo not drawn) [Compound 29]	0

same assay, conditions: 500 g ai/ha, 0 to 100 scale

SMILES	Plant response rating, Kochia
O=C1NCC(C#Cc2cccc(Cl)c2)C1C(=O)Nc1ccccc1F (stereo not drawn) [Compound 29]	0

test system: ragweed (common ragweed, Ambrosia elatior); test: Test A postemergence, ragweed; format: in vivo; conditions: 125 g ai/ha, 0 to 100 scale
Procedure, shortened: as §1

SMILES	Plant response rating, Ragweed
O=C1NCC(C#Cc2cccc(Cl)c2)C1C(=O)Nc1ccccc1F (stereo not drawn) [Compound 29]	0

same assay, conditions: 500 g ai/ha, 0 to 100 scale

SMILES	Plant response rating, Ragweed
O=C1NCC(C#Cc2cccc(Cl)c2)C1C(=O)Nc1ccccc1F (stereo not drawn) [Compound 29]	0

test system: ryegrass, It. (Italian ryegrass, Lolium multiflorum); test: Test A postemergence, ryegrass, It.; format: in vivo; conditions: 125 g ai/ha, 0 to 100 scale
Procedure, shortened: as §1

SMILES	Plant response rating, Ryegrass, It.
O=C1NCC(C#Cc2cccc(Cl)c2)C1C(=O)Nc1ccccc1F (stereo not drawn) [Compound 29]	0

same assay, conditions: 500 g ai/ha, 0 to 100 scale

SMILES	Plant response rating, Ryegrass, It.
O=C1NCC(C#Cc2cccc(Cl)c2)C1C(=O)Nc1ccccc1F (stereo not drawn) [Compound 29]	0

test system: foxtail, giant (giant foxtail, Setaria faberii); test: Test A postemergence, foxtail, giant; format: in vivo; conditions: 125 g ai/ha, 0 to 100 scale
Procedure, shortened: as §1

SMILES	Plant response rating, Foxtail, Giant
O=C1NCC(C#Cc2cccc(Cl)c2)C1C(=O)Nc1ccccc1F (stereo not drawn) [Compound 29]	0

same assay, conditions: 500 g ai/ha, 0 to 100 scale

SMILES	Plant response rating, Foxtail, Giant
O=C1NCC(C#Cc2cccc(Cl)c2)C1C(=O)Nc1ccccc1F (stereo not drawn) [Compound 29]	60

test system: wheat (Triticum aestivum); test: Test A postemergence, wheat; format: in vivo; conditions: 125 g ai/ha, 0 to 100 scale
Procedure, shortened: as §1

SMILES	Plant response rating, Wheat
O=C1NCC(C#Cc2cccc(Cl)c2)C1C(=O)Nc1ccccc1F (stereo not drawn) [Compound 29]	0

same assay, conditions: 500 g ai/ha, 0 to 100 scale

SMILES	Plant response rating, Wheat
O=C1NCC(C#Cc2cccc(Cl)c2)C1C(=O)Nc1ccccc1F (stereo not drawn) [Compound 29]	0

test system: corn (Zea mays); test: Test A postemergence, corn; format: in vivo; conditions: 125 g ai/ha, 0 to 100 scale
Procedure, shortened: as §1

SMILES	Plant response rating, Corn
O=C1NCC(C#Cc2cccc(Cl)c2)C1C(=O)Nc1ccccc1F (stereo not drawn) [Compound 29]	0

same assay, conditions: 500 g ai/ha, 0 to 100 scale

SMILES	Plant response rating, Corn
O=C1NCC(C#Cc2cccc(Cl)c2)C1C(=O)Nc1ccccc1F (stereo not drawn) [Compound 29]	0

test system: pigweed (Amaranthus retroflexus); test: Test A postemergence, pigweed; format: in vivo; conditions: 125 g ai/ha, 0 to 100 scale
Procedure, shortened: as §1

SMILES	Plant response rating, Pigweed
O=C1NCC(C#Cc2cccc(Cl)c2)C1C(=O)Nc1ccccc1F (stereo not drawn) [Compound 29]	0

same assay, conditions: 500 g ai/ha, 0 to 100 scale

SMILES	Plant response rating, Pigweed
O=C1NCC(C#Cc2cccc(Cl)c2)C1C(=O)Nc1ccccc1F (stereo not drawn) [Compound 29]	0

test system: blackgrass (Alopecurus myosuroides); test: Test A postemergence, blackgrass; format: in vivo; conditions: 125 g ai/ha, 0 to 100 scale
Procedure, shortened: as §1

SMILES	Plant response rating, Blackgrass
O=C1NCC(C#Cc2cccc(Cl)c2)C1C(=O)Nc1ccccc1F (stereo not drawn) [Compound 29]	0

same assay, conditions: 500 g ai/ha, 0 to 100 scale

SMILES	Plant response rating, Blackgrass
O=C1NCC(C#Cc2cccc(Cl)c2)C1C(=O)Nc1ccccc1F (stereo not drawn) [Compound 29]	0

test system: galium (catchweed bedstraw, Galium aparine); test: Test A postemergence, galium; format: in vivo; conditions: 125 g ai/ha, 0 to 100 scale
Procedure, shortened: as §1

SMILES	Plant response rating, Galium
O=C1NCC(C#Cc2cccc(Cl)c2)C1C(=O)Nc1ccccc1F (stereo not drawn) [Compound 29]	0

same assay, conditions: 500 g ai/ha, 0 to 100 scale

SMILES	Plant response rating, Galium
O=C1NCC(C#Cc2cccc(Cl)c2)C1C(=O)Nc1ccccc1F (stereo not drawn) [Compound 29]	0

test system: barnyardgrass (Echinochloa crus-galli); test: Test B flooded paddy test, barnyardgrass; format: in vivo; conditions: Flood, 250 g ai/ha; scale of 0 to 100 where 0 is no effect and 100 is complete control; 13 to 15 d
Procedure, shortened: (§2)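 Ratings use a 0-100 visual scale, where 100 is complete control, and compare treated plants with controls after 13 to 15 d of greenhouse growth. Compound went straight into paddy water kept 3 cm over the soil surface, applied to seedlings at the 2-leaf stage.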

SMILES	Plant response rating, Barnyardgrass
O=C1NCC(C#Cc2cccc(Cl)c2)C1C(=O)Nc1ccccc1F (stereo not drawn) [Compound 29]	0

test system: ducksalad (Heteranthera limosa); test: Test B flooded paddy test, ducksalad; format: in vivo; conditions: Flood, 250 g ai/ha; scale of 0 to 100 where 0 is no effect and 100 is complete control; 13 to 15 d
Procedure, shortened: as §2

SMILES	Plant response rating, Ducksalad
O=C1NCC(C#Cc2cccc(Cl)c2)C1C(=O)Nc1ccccc1F (stereo not drawn) [Compound 29]	75

test system: rice (Oryza sativa); test: Test B flooded paddy test, rice; format: in vivo; conditions: Flood, 250 g ai/ha; scale of 0 to 100 where 0 is no effect and 100 is complete control; 13 to 15 d
Procedure, shortened: as §2

SMILES	Plant response rating, Rice
O=C1NCC(C#Cc2cccc(Cl)c2)C1C(=O)Nc1ccccc1F (stereo not drawn) [Compound 29]	0

test system: sedge, umbrella (small-flower umbrella sedge, Cyperus difformis); test: Test B flooded paddy test, sedge, umbrella; format: in vivo; conditions: Flood, 250 g ai/ha; scale of 0 to 100 where 0 is no effect and 100 is complete control; 13 to 15 d
Procedure, shortened: as §2

SMILES	Plant response rating, Sedge, Umbrella
O=C1NCC(C#Cc2cccc(Cl)c2)C1C(=O)Nc1ccccc1F (stereo not drawn) [Compound 29]	0

Source: patent US10906873B2, “Substituted cyclic amides as herbicides” (FMC Corporation, priority 2015, dated 2021)
